Laboratory results: ChEMBL document CHEMBL1201862, “PubChem BioAssay data set” (2004)
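Compound exposure: 48 hours, 5 concentrations, 96-well plates. GI50: concentration for 50% inhibition of growth.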 Active and inactive are the calls of the source. Cut-off read from the data, not from the text of the source: active = GI50 up to about 1.1 µM and inactive = higher.

Key:
Experiment in all cases: NCI tumour cell line growth inhibition, 48 h
MDA-MB-231 = tested on: MDA-MB-231
SF-295 = tested on: SF-295
A549 = tested on: A549
COLO 205 = tested on: COLO 205
UACC-257 = tested on: UACC-257
786-0 = tested on: 786-0
HT-29 = tested on: HT-29
HCT-116 = tested on: HCT-116
SK-MEL-28 = tested on: SK-MEL-28
MOLT-4 = tested on: MOLT-4
SK-MEL-5 = tested on: SK-MEL-5
SK-MEL-2 = tested on: SK-MEL-2
IGROV-1 = tested on: IGROV-1
MDA-MB-435 = tested on: MDA-MB-435
HOP-62 = tested on: HOP-62
SF-539 = tested on: SF-539
HOP-92 = tested on: HOP-92
HCC 2998 = tested on: HCC 2998
SNB-75 = tested on: SNB-75
OVCAR-4 = tested on: OVCAR-4

SMILES	GI50 (MDA-MB-231)	GI50 (SF-295)	GI50 (A549)	GI50 (COLO 205)	GI50 (UACC-257)	GI50 (786-0)	GI50 (HT-29)	GI50 (HCT-116)	GI50 (SK-MEL-28)	GI50 (MOLT-4)	GI50 (SK-MEL-5)	GI50 (SK-MEL-2)	GI50 (IGROV-1)	GI50 (MDA-MB-435)	GI50 (HOP-62)	GI50 (SF-539)	GI50 (HOP-92)	GI50 (HCC 2998)	GI50 (SNB-75)	GI50 (OVCAR-4)
CCOC(=O)c1c(NC(=O)c2ccc(OC)cc2)sc2c1CCCC2	> 100 µM (inactive)	> 100 µM (inactive)	> 100 µM (inactive)	> 100 µM (inactive)	> 100 µM (inactive)	> 100 µM (inactive)	> 100 µM (inactive)	> 100 µM (inactive)	> 100 µM (inactive)	> 100 µM (inactive)	> 100 µM (inactive)	> 100 µM (inactive)	> 100 µM (inactive)	> 100 µM (inactive)	> 100 µM (inactive)	> 100 µM (inactive)				
Nc1ccc(C(c2ccccc2)(c2ccccc2)c2ccccc2)cc1		12.3 µM (inactive)	> 100 µM (inactive)	> 100 µM (inactive)	34.3 µM (inactive)	48.2 µM (inactive)	45.5 µM (inactive)	62.1 µM (inactive)	19.7 µM (inactive)	> 100 µM (inactive)	42.2 µM (inactive)	> 100 µM (inactive)	52.1 µM (inactive)		27.9 µM (inactive)	37 µM (inactive)	14 µM (inactive)	> 100 µM (inactive)	13.5 µM (inactive)	24.7 µM (inactive)
CC1(C)N(OC2CCCCO2)C(c2ccccc2)C(c2ccccc2)=[N+]1[O-] (centres undefined)	> 100 µM (inactive)	41 µM (inactive)	58.6 µM (inactive)	> 100 µM (inactive)	> 100 µM (inactive)	> 100 µM (inactive)	> 100 µM (inactive)	60.3 µM (inactive)	> 100 µM (inactive)	30 µM (inactive)	52.1 µM (inactive)	51.1 µM (inactive)	> 100 µM (inactive)		> 100 µM (inactive)	> 100 µM (inactive)	> 100 µM (inactive)	> 100 µM (inactive)	20.1 µM (inactive)	> 100 µM (inactive)
CSC1=N/C(=C\c2ccc(Cl)cc2)C(=O)N1CN1CCCCC1	42.1 µM (inactive)	35.5 µM (inactive)	42.4 µM (inactive)	60.1 µM (inactive)		42.8 µM (inactive)	35.6 µM (inactive)	37.7 µM (inactive)	> 100 µM (inactive)	62.7 µM (inactive)	32.4 µM (inactive)	67.5 µM (inactive)	7.38 µM (inactive)	35.9 µM (inactive)	20.4 µM (inactive)				46.2 µM (inactive)	
CCCCCCCCCCCCCCCC(=O)NCC(OCC)OCC		> 100 µM (inactive)	> 100 µM (inactive)	> 100 µM (inactive)	> 100 µM (inactive)	> 100 µM (inactive)	> 100 µM (inactive)	> 100 µM (inactive)	> 100 µM (inactive)		> 100 µM (inactive)	> 100 µM (inactive)	> 100 µM (inactive)		> 100 µM (inactive)	> 100 µM (inactive)	> 100 µM (inactive)	> 100 µM (inactive)	> 100 µM (inactive)	> 100 µM (inactive)
COc1ccc2c(c1)CN1CCc3c(cc(OC)c(OC)c3OC)C1C2 (centres undefined)		> 100 µM (inactive)	> 100 µM (inactive)	> 100 µM (inactive)	> 100 µM (inactive)	> 100 µM (inactive)	68.5 µM (inactive)	> 100 µM (inactive)	47.6 µM (inactive)	63 µM (inactive)	36.5 µM (inactive)	> 100 µM (inactive)	> 100 µM (inactive)		> 100 µM (inactive)	> 100 µM (inactive)	> 100 µM (inactive)	> 100 µM (inactive)	> 100 µM (inactive)	> 100 µM (inactive)
S=C1CSc2c(ccc3ccccc23)N1	> 100 µM (inactive)	> 100 µM (inactive)	67.1 µM (inactive)	> 100 µM (inactive)	> 100 µM (inactive)	> 100 µM (inactive)	> 100 µM (inactive)	> 100 µM (inactive)	> 100 µM (inactive)	9.98 µM (inactive)	> 100 µM (inactive)		> 100 µM (inactive)	> 100 µM (inactive)	> 100 µM (inactive)				> 100 µM (inactive)	> 100 µM (inactive)
COC(=O)C(C(=O)C(=O)Nc1ccc(N)cc1[N+](=O)[O-])c1nc2ccc(Cl)cc2nc1O (centres undefined)		> 100 µM (inactive)	> 100 µM (inactive)	> 100 µM (inactive)	> 100 µM (inactive)	> 100 µM (inactive)	> 100 µM (inactive)	> 100 µM (inactive)	> 100 µM (inactive)	> 100 µM (inactive)	95.5 µM (inactive)	> 100 µM (inactive)	> 100 µM (inactive)		> 100 µM (inactive)	> 100 µM (inactive)	52.7 µM (inactive)	> 100 µM (inactive)	32.4 µM (inactive)	> 100 µM (inactive)
COc1cc2nc(-c3ccccc3F)nc(O)c2cc1OC	> 100 µM (inactive)	> 100 µM (inactive)	> 100 µM (inactive)	> 100 µM (inactive)	> 100 µM (inactive)	> 100 µM (inactive)	59.4 µM (inactive)	> 100 µM (inactive)		70.3 µM (inactive)	> 100 µM (inactive)	> 100 µM (inactive)	> 100 µM (inactive)		92.5 µM (inactive)		> 100 µM (inactive)	> 100 µM (inactive)	> 100 µM (inactive)	> 100 µM (inactive)
Cc1cccc(C(C)(C)C)c1NC(=O)CC1C(=O)Nc2ccccc2S1(=O)=O (centres undefined)		7.1 µM (inactive)	13.6 µM (inactive)		27.6 µM (inactive)	10 µM (inactive)	5.25 µM (inactive)	10.4 µM (inactive)	14.1 µM (inactive)	2.28 µM (inactive)	12.1 µM (inactive)	9.12 µM (inactive)	9.33 µM (inactive)			3.14 µM (inactive)	11.5 µM (inactive)	8.11 µM (inactive)	12.5 µM (inactive)	11.4 µM (inactive)
O=C(CC1Sc2ccccc2NC1=O)Nc1cc(Cl)ccc1Cl (centres undefined)		> 100 µM (inactive)	> 100 µM (inactive)		> 100 µM (inactive)	> 100 µM (inactive)	> 100 µM (inactive)	> 100 µM (inactive)	> 100 µM (inactive)	29.8 µM (inactive)	> 100 µM (inactive)	> 100 µM (inactive)	> 100 µM (inactive)			92.3 µM (inactive)	> 100 µM (inactive)	> 100 µM (inactive)	33.4 µM (inactive)	> 100 µM (inactive)
O=C1c2ccccc2-c2ccccc2C(=O)C1(Br)Br		16.1 µM (inactive)	17.7 µM (inactive)	8.24 µM (inactive)	10.7 µM (inactive)	13 µM (inactive)	15.4 µM (inactive)	7.73 µM (inactive)	7.28 µM (inactive)	2.67 µM (inactive)	17.3 µM (inactive)	9.75 µM (inactive)	14 µM (inactive)		18.2 µM (inactive)	9.51 µM (inactive)	3.21 µM (inactive)	18.2 µM (inactive)	12.9 µM (inactive)	13.7 µM (inactive)
O=C(NC(=O)c1cc2cc(Br)cc(Br)c2oc1=O)Oc1ccccc1		49.9 µM (inactive)	> 100 µM (inactive)	> 100 µM (inactive)	59.2 µM (inactive)	45.3 µM (inactive)	> 100 µM (inactive)	> 100 µM (inactive)	> 100 µM (inactive)	> 100 µM (inactive)	> 100 µM (inactive)		50.7 µM (inactive)		43.7 µM (inactive)	87.3 µM (inactive)	> 100 µM (inactive)	> 100 µM (inactive)	13.7 µM (inactive)	> 100 µM (inactive)
O=C(CCc1nnc(S)[nH]1)Nc1cc(Cl)ccc1Cl		> 100 µM (inactive)	> 100 µM (inactive)	> 100 µM (inactive)	> 100 µM (inactive)	> 100 µM (inactive)	> 100 µM (inactive)	> 100 µM (inactive)	> 100 µM (inactive)	> 100 µM (inactive)	> 100 µM (inactive)	> 100 µM (inactive)	> 100 µM (inactive)		> 100 µM (inactive)	> 100 µM (inactive)	> 100 µM (inactive)	> 100 µM (inactive)	37.9 µM (inactive)	> 100 µM (inactive)
CC(=O)OC(C)(C)/C=C/C(=O)[C@](C)(O)[C@H]1[C@H](O)C[C@@]2(C)[C@@H]3CC=C4[C@@H](C[C@H](O)[C@H](O)C4(C)C)[C@]3(C)C(=O)C[C@]12C		0.973 µM (active)	0.822 µM (active)	0.31 µM (active)	0.638 µM (active)	0.24 µM (active)	0.302 µM (active)	0.277 µM (active)	0.526 µM (active)	0.289 µM (active)	0.701 µM (active)	0.752 µM (active)	0.925 µM (active)		1.51 µM (inactive)	0.303 µM (active)	0.22 µM (active)	0.822 µM (active)	0.261 µM (active)	0.331 µM (active)
COc1ccc(C2C(Cl)C(=O)N2NC(=O)c2ccc(NC(C)=O)cc2)cc1 (centres undefined)		> 100 µM (inactive)	> 100 µM (inactive)	> 100 µM (inactive)	> 100 µM (inactive)	> 100 µM (inactive)	> 100 µM (inactive)	> 100 µM (inactive)	> 100 µM (inactive)	> 100 µM (inactive)	> 100 µM (inactive)	> 100 µM (inactive)	> 100 µM (inactive)		> 100 µM (inactive)	> 100 µM (inactive)	> 100 µM (inactive)		> 100 µM (inactive)	> 100 µM (inactive)
